Assays:
[1] = target: T1, human Kir2.1 (Homo sapiens, UniProt P63252); assay: Kir2.1 thallium flux assay; type: cell-based; settings: for IC50: T-REx-HEK-293 cells expressing human Kir2.1, 4PL fit, top concentration 30 μM, read-out: Thallium Flux Potency IC50
T1 construct: expressed in transfected cells
T1 sequence (P63252 1-427): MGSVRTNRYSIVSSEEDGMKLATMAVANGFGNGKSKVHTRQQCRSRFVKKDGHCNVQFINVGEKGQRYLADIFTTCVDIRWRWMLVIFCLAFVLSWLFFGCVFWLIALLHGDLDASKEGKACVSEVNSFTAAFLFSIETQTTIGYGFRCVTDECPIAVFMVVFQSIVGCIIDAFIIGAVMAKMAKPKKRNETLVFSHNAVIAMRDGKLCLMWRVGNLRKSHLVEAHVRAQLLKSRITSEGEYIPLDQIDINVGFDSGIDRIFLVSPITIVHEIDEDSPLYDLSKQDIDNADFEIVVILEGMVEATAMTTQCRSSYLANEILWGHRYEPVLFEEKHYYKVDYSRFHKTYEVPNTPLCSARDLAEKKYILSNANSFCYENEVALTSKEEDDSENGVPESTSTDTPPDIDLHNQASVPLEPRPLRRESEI
Method: Thallium Flux Assay Experimental Conditions
The Tl+ flux assays were conducted as previously described with modifications optimized for Kir2.1 cell line as described below.1
Briefly, stable T-REx-HEK-293 cells expressing human K ir2.1 were cultured in DMEM growth medium (Catalog #11965-092, Gibco, Billings, MT) containing 10% heat-inactivated FBS (Catalog #16140, Gibco), 100 U/mL PenStrep, 5 μg/mL Blasticidin S, and 250 μg/mL Hygromycin.
The day prior to the experiment, cells at ~90% confluency were resuspended in plating media, which consisted of the same components as the growth media, except that heat-inactivated FBS was replaced with dialyzed FBS (Catalog #26400, Gibco). Tetracycline was added to the plating media to achieve a final concentration of 1 μg/ml to induce hKir2.1 expression. Cells were then counted and plated at 15,000 cells/well in black-walled, amine- or PDL- coated, 384-well plates at 20 μl/well (Corning, Corning, NY). On the day of experiment, the media was removed from the cell plate and replaced with 20 μl/well of Tl+-sensitive dye loading solution containing 2.5 μg/ml Thallos-AM (Catalog #11000-050, ION Biosciences, San Marcos, TX) in assay buffer using a Multidrop Combi dispenser (Thermo Fisher Scientific, Walkham, MA). Cell plates loaded with dye solution were incubated for 1 hour at room temperature. Following incubation, the cell plate was washed with HBSS assay buffer containing 20 mM HEPES using a BioTek ELx 405 TS plate washer (Agilent, Santa Clara, CA), leaving 20 μl of assay buffer in each well. The cell plate was then transferred to a Panoptic kinetic imaging plate reader (WaveFront Biosciences, Franklin, TN) for imaging at 1 Hz, 482/35 nm excitation and 536/40 nm emission for 10 seconds. Following this, 20 μl/well of HBSS assay buffer containing test compounds at 2-fold over their final concentrations were added and imaging continued for another eight minutes, after which 10 μl/well of chloride-free Tl+ stimulus solution was added (Catalog #11000-050, ION Biosciences). The final Tl2SO4 concentration in cell plate post-Tl+ stimulus solution addition was 0.25 mM. Images were collected for an additional two minutes. A ten-point concentration series from 30 μM to 2 nM with a 1:3 dilution factor was generated using an Echo liquid handler 650 (Labcyte, San Jose, CA). Final DMSO concentration, 0.3% (v/v) in the assay was constant across all compound concentrations.
The initial slopes of the Tl+-induced fluorescence changes were fit to a four-parameter logistic equation using our in-house software Waveguide to determine potency and efficacy values. […]
Bauer, J. A.; Days, E. L.; Lindsley, C. […]

[2] = target: T1, human Kir2.1; assay: Kir2.1 manual patch clamp (MPC) assay; type: cell-based; settings: pH 7.4, -120 mV, normalized to 2 mM Ba2+ block; top concentration 10 μM (ML133 30 μM, 5t 3 μM)
Method: Manual Patch Claim Assay Experimental Conditions
Whole-cell patch-clamp electrophysiology was used to record K ir2.1 currents from a stably transfected monoclonal T-Rex-HEK-293 cell line with a tetracycline-inducible promoter expressing human Kir2.1, as described previously1 cultured in a 5% CO2 incubator at 37°C. Kir2.1 expression was induced by overnight treatment with 1 µg/mL tetracycline. Cells were dissociated using 0.25% Trypsin-EDTA and seeded onto 12 mm circular coverslips (Electron Microscopy Sciences, PA, USA) for same-day whole-cell patch-clamp recordings. Kir2.1 currents were recorded at room temperature using an AxoPatch 200B amplifier with Clampex 10.7 software (Molecular Devices, USA). The voltage-clamp protocol consisted of a 1-s step to -120 mV from a -80 mV holding potential, followed by a 2-s ramp to +40 mV, repeated every 10 s. Data were sampled at 5 kHz and filtered at 1 kHz. Patch pipettes, pulled from 1.5 mm OD thin-walled capillaries (Warner Instruments, MA, USA) using a Sutter P-1000 puller (Sutter Instrument, CA, USA), had resistances of 2–3 MΩ when filled with intracellular solution containing (mM): 135 KCl, 10 HEPES, 1 EGTA, 2 MgCl2, 2 Na2ATP (pH 7.35, adjusted with KOH). The extracellular solution contained (mM): 135 NaCl, 5 KCl, 2 CaCl2, 1 MgCl2, 5 Glucose, 10 HEPES, 10 Sucrose (pH 7.35, adjusted with NaOH). After establishing stable baseline Kir2.1 currents, cells were perfused with compounds at concentrations of 0.03–30 µM until response saturation (within minutes).
Recordings concluded with a 2 mM Ba2+ solution to isolate Ba2+-sensitive currents, with compound responses expressed as fractions of this current. Current amplitudes at the -120 mV step were analyzed using Clampfit 11.2 (Molecular Devices). IC50 values were calculated by fitting the Hill equation to concentration-response curves (CRCs) using variable -slope nonlinear regression in GraphPad Prism 10.4 (GraphPad Software).
MPC experiments for Kir2.2 and Kir2.3 were conducted in an analogous fashion.1

[3] = Rat PK PBL cassette (i.v.); type: in vivo, Sprague-Dawley rat; settings: Sprague-Dawley, iv, male SD rat, 0.2 mg/kg i.v. cassette
Excerpt: While ML133 has found use as a Kir2.1 tool molecule across many disease models, the in vivo PK of this and related compounds within the dibenzylamine chemotype have not previously been characterized. As a highly efficient method for profiling the PK of a compound set, we therefore examined ML133 (alongside 9 additional next-generation Kir2.1 inhibitors) in our rat PK PBL cassette dosing platform (Table ). − From this experimental setup, administration of a 4-compound bolus dose, plus a standard control, can be used to determine a variety of PK parameters in a high-throughput fashion. Specifically, Sprague–Dawley (SD) rats were given 0.2 mg/kg of each Kir2.1 inhibitor (i.v. dosing, 4 compounds +1 control, total dose 1 mg/kg) with PK measured across set time points up to 24 h. Additionally, a separate cohort of animals was utilized to assess total plasma-brain levels (PBL, ratio reported as Kp) of compound at a 0.25 time point. In this fashion, standard plasma-based PK parameters (elimination t 1/2, […] (MRT), plasma clearance (CLp), and volume of distribution (Vss)) were measured alongside a parallel assessment of total brain exposure.
PK PBL Cassette Experimental Conditions
4 compounds plus one control were formulated as a solution in ethanol, PEG400, and DMSO (1:3:6 v/v, respectively) at a concentration of 1 mg/mL and administered as a single IV dose (1 mL/kg, 0.2 mg/kg per compound, total 1 mg/kg) to male, Sprague Dawley rats (n = 1) via injection into a surgically -implanted jugular vein catheter. Blood samples were collected serially from a surgically implanted carotid artery catheter in each animal over multiple post -administration time points (0.033, 0.117, 0.25, 0.5, 1, 2, 4, 7, and 24 hours) into chilled, K 2EDTA anticoagulant - fortified tubes and immediately placed on wet ice. The blood samples were then centrifuged (1700 rcf, 5 minutes, 4 °C) to ob tain plasma samples, which were stored at -80 °C until analysis […]
For determination of the brain over plasma ratio (K p), the same cassette of compounds plus control were formulated in ethanol, PEG400, and DMSO (1:3:6 v/v, respectively) and administered as a single IV dose (1 mL/kg, 0.2 mg/kg per compound, total 1 mg/kg) to male, Sprague Dawley rats ( n = 1) via injection into a surgically-implanted jugular vein catheter. At 15 min post dosing, blood sample was collected terminally into chilled, K 2EDTA anticoagulant-fortified tube and immediately placed on wet ice. The bloo d sample was then centrifuged (1700 rcf, 5 minutes, 4 °C) to obtain plasma sample. At the same post-administration time point, whole brain sample was obtained by rapid dissection, rinsed with PBS, and immediately frozen in individual tissue collection box (dry ice). All brain and plasma samples were stored at -80 °C until […]
Samples preparation for bioanalysis
Plasma samples from the in-life phase of the study were thawed at ambient temperature (benchtop), and then aliquots (20 µL per sample) were transferred to a 96-shallow-well (V-bottom) plate. Matrix-matched quality control (QC) samples and a standard curve of each analyte (1 mg/mL DMSO stock solution) were prepared in blank rat plasma (K2EDTA-treated) via serial dilution and transferred (20 µL each) to the plate along with multiple blank plasma samples. MeCN (120 µL) containing IS (10 nM carbamazepine) was added to each well of the plate to precipitate protein. The plate was then centrifuged (4000 rcf, 5 minutes, ambient temperature), and resulting supernatants (60 µL each) were transferred to a new 96-shallow-well (V-bottom) plate containing an equal volume (60 µL per well) of water (Milli-Q purified). The plate was then sealed in preparation for LC-MS/MS analysis.
Preparation of brain samples was identical to that of plasma samples except for the following modifications. While thawing, brains were weighed (inside their collection boxes using a universal empty collection box tare weight) and then subjected to mechanical homogenization […]

IC50 [1] | IC50 [2] | Fold less potent than ML133 in the thallium flux assay [1] | Emax ([1]; efficacy from 4PL fit, relative to ML133, read-out: Thallium Flux Efficacy (% Inhibition)) | Kp at 0.25 h ([3]; brain and plasma, 0.25 time point (15 min post dosing), read-out: Kp (total brain to plasma ratio)) | AUC ([3]; plasma, n = 1, read-out: AUC) | clearance ([3]; plasma, n = 1, read-out: CLp) | half-life ([3]; plasma, n = 1, read-out: Elim. t1/2 (converted)) | MRT ([3]; plasma, n = 1, read-out: MRT) | Vd ([3]; plasma, n = 1, read-out: Vss) | SMILES
4.7 µM | 0.21 µM |  |  |  |  |  |  |  |  | COc1ccc(CNCc2ccc(-c3cccc(OC)c3)cc2)cc1 [Compound 13]
5.4 µM | 0.21 µM |  |  |  |  |  |  |  |  | COc1ccc(CNCc2ccc(-c3cccc(OC)c3)cc2)cc1 [Compound 9]
4.3 µM | 0.33 µM |  |  |  |  |  |  |  |  | COc1ccc(CNCc2ccc(-c3cccc(OC)c3)cc2)cc1 [Compound 11]
24.8 µM |  | approximately 2 fold | 140% | 1.05 | 183 ng·h/mL | 18.2 mL/min/kg | 17.4 min | 21.6 min | 0.39 L/kg | COc1ccc(CNCc2cncc3ccccc23)cc1 [Compound 5b]
